Test results as given in ChEMBL document CHEMBL1146244, “Stictic acid derivatives from the lichen Usnea articulata and their antioxidant activities” (J Nat Prod, 2007).

Columns and labels:
[1] = DPPH radical scavenging activity at 3000 uM; format: functional
[2] = Superoxide radical scavenging activity; format: functional

IC50 [2] [µM] | SMILES | Activity [1] [%]
– | COc1cc(C)c2c(c1C=O)Oc1c(C=O)c(C(=O)O)c(O)c(C)c1OC2=O | 30
– | COc1cc(C)c2c(c1CO)Oc1c3c(c(O)c(C)c1OC2=O)C(=O)OC3 | 18
580 | Cc1cc(O)c(C=O)c2c1C(=O)Oc1c(COC(=O)/C=C/C(=O)O)c(O)c(C(=O)O)c(C)c1O2 [FUMARPROTOCETRARIC ACID] | 20
566 | Cc1cc(O)c(C=O)c2c1C(=O)Oc1c(C)c(O)c3c(c1O2)C(O)OC3=O (stereo not given) [NORSTICTIC ACID] | –
